pKi: −log10 of the molar value.
Assays:
Dopamine receptor D2 = Dopamine receptor D2 (Homo sapiens, UniProt P14416); assay type: cell-based; settings: Fig. 3A agonist assay
Dopamine receptor D4 = target: T1, Dopamine receptor D4 (Homo sapiens, UniProt P21917); assay type: cell-based; settings: Fig. 3A agonist assay
T1 sequence (P21917 1-419): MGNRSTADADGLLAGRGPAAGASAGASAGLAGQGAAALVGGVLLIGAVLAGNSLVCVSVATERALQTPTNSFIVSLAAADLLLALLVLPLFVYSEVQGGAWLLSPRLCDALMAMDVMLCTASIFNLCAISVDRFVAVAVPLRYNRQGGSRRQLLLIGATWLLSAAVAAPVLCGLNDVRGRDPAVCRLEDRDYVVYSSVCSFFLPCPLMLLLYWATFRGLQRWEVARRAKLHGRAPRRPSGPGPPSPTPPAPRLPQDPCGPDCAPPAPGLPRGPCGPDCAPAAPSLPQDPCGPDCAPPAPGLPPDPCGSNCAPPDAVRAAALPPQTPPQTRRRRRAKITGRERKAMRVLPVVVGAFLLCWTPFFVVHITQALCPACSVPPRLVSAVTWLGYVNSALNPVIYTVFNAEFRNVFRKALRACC

D2 Receptor = D2 Receptor (Homo sapiens, UniProt P14416); assay: radioligand binding, [3H]N-methylspiperone; settings: @ 10μM (Fig. 1c)
Sequence of D2 Receptor (P14416 whole entry): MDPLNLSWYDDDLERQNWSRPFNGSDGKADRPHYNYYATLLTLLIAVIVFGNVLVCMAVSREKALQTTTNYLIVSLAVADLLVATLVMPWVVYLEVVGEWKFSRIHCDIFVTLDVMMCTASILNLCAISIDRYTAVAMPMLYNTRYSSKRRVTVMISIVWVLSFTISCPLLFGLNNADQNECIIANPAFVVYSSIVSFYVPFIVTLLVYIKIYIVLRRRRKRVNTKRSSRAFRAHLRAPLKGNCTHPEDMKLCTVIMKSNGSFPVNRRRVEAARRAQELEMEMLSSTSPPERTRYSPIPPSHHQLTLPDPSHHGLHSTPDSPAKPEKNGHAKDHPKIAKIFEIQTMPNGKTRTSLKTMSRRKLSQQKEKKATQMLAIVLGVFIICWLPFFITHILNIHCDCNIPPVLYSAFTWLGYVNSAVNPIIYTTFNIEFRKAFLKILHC

D4 Receptor = target: T2, D4 Receptor (Homo sapiens, UniProt P21917); assay: radioligand binding, [3H]N-methylspiperone; settings: bound stated
T2 sequence (P21917 1-419): T1 sequence (P21917 1-419)

Sequence of Dopamine receptor D2 (P14416 whole entry, species assumed): as the sequence (P14416 whole entry) above

| D2 functional mode (Dopamine receptor D2) | D4 functional mode (Dopamine receptor D4) | radioligand percentage inhibition D2 (D2 Receptor) [%] | pKi (D4 Receptor) | SMILES |
| --- | --- | --- | --- | --- |
| inverse agonist | agonist | 96 | – | COc1cc2c(cc1OC)C(=O)N(CCCCN1CCN(c3ccccc3OC)CC1)C2 [Compound 3] |
| – | – | – | > 6.00 | c1cncc(OC[C@@H]2CN(CCN3CCc4ccccc43)CCO2)c1 [Compound 21s] |
| – | inverse agonist | 19 | – | COc1cc2c(cc1OC)C(=O)C(CC1CCN(Cc3ccccc3)CC1)C2 (stereo not drawn) [Donepezil (Cpd 1), Donepezil, reference compound] |

— paper PMC3653568 (Nature, 2012)
